Assay results from ChEMBL document CHEMBL1671859, “bla(IMP-4) in different genetic contexts in Enterobacteriaceae isolates from Australia” (2008).
Converted amounts (≈) assume the structure as drawn.

Assays:
Format in all cases: functional
Citrobacter koseri = assay: Antibacterial activity against Citrobacter koseri Ck211 transconjugant harboring IncA/C plasmid and blaIMP-4-qacG2-aacA4-catB3 array by Etest method
Serratia marcescens [1] = assay: Antibacterial activity against Serratia marcescens isolate Sm211 harboring IncA/C plasmid and blaIMP-4-qacG2-aacA4-catB3 array by Etest method
Escherichia coli [2] = assay: Antibacterial activity against Escherichia coli isolate Ec221 harboring IncA/C plasmid and blaIMP-4-qacG2-aacA4-catB3 array by Etest method
Klebsiella pneumoniae [3] = assay: Antibacterial activity against Klebsiella pneumoniae Kp3799 transconjugant harboring IncL/M plasmid and blaIMP-4-qacG2-aacA4-catB3 array by Etest method
Escherichia coli [4] = assay: Antibacterial activity against Escherichia coli isolate Ec158 harboring IncA/C plasmid and blaIMP-4-qacG2-aacA4-catB3 array by Etest method
Enterobacter cloacae [5] = assay: Antibacterial activity against Enterobacter cloacae isolate El216 harboring IncA/C plasmid and blaIMP-4-qacG2-aacA4-catB3 array by Etest method
Klebsiella pneumoniae [6] = assay: Antibacterial activity against Klebsiella pneumoniae isolate Kp204 harboring IncA/C plasmid and blaIMP-4-qacG2-aacA4-catB3 array by Etest method
Klebsiella pneumoniae [7] = assay: Antibacterial activity against Klebsiella pneumoniae isolate Kp4614
Enterobacter cloacae [8] = assay: Antibacterial activity against Enterobacter cloacae El3518 transconjugant harboring IncL/M plasmid and blaIMP-4-qacG2-aacA4-catB3 array by Etest method
Enterobacter cloacae [9] = assay: Antibacterial activity against Enterobacter cloacae isolate El3518 harboring IncL/M plasmid and blaIMP-4-qacG2-aacA4-catB3 array by Etest method
Klebsiella pneumoniae [10] = assay: Antibacterial activity against Klebsiella pneumoniae isolate Kp38009 harboring IncL/M plasmid and blaIMP-4-qacG2-aacA4-catB3 array by Etest method
Klebsiella pneumoniae [11] = assay: Antibacterial activity against Klebsiella pneumoniae isolate Kp3799 harboring IncL/M plasmid and blaIMP-4-qacG2-aacA4-catB3 array by Etest method
Serratia marcescens [12] = assay: Antibacterial activity against Serratia marcescens isolate Sm201 harboring IncA/C plasmid and blaIMP-4-qacG2-aacA4-catB3 array by Etest method
Serratia marcescens [13] = assay: Antibacterial activity against Serratia marcescens Sm2723 transconjugant harboring IncL/M plasmid and blaIMP-4-qacG2-aacA4-catB3 array by Etest method
Morganella morganii [14] = assay: Antibacterial activity against Morganella morganii isolate Mm1614 harboring IncL/M plasmid and blaIMP-4-qacG2-aacA4-catB3 array by Etest method
Morganella morganii [15] = assay: Antibacterial activity against Morganella morganii Mm38009 transconjugant harboring IncL/M plasmid and blaIMP-4-qacG2-aacA4-catB3 array by Etest method
Klebsiella oxytoca [16] = assay: Antibacterial activity against Klebsiella oxytoca Ko0426 transconjugant harboring IncL/M plasmid and blaIMP-4-qacG2-aacA4-catB3 array by Etest method
Citrobacter amalonaticus [17] = assay: Antibacterial activity against Citrobacter amalonaticus isolate Ca1614 harboring IncL/M plasmid and blaIMP-4-qacG2-aacA4-catB3 array by Etest method
Klebsiella pneumoniae [18] = assay: Antibacterial activity against Klebsiella pneumoniae Kp7564 transconjugant harboring IncL/M plasmid and blaIMP-4-qacG2-aacA4-catB3 array by Etest method
Klebsiella pneumoniae [19] = assay: Antibacterial activity against Klebsiella pneumoniae Kp149 transconjugant harboring IncA/C plasmid and blaIMP-4-qacG2-aacA4-catB3 array by Etest method
Citrobacter amalonaticus [20] = assay: Antibacterial activity against Citrobacter amalonaticus Ca3927 transconjugant harboring IncL/M plasmid and blaIMP-4-qacG2-aacA4-catB3 array by Etest method
Enterobacter cloacae [21] = assay: Antibacterial activity against Enterobacter cloacae El1573 transconjugant harboring IncL/M plasmid and blaIMP-4-qacG2-aacA4-catB3 array by Etest method
Citrobacter amalonaticus [22] = assay: Antibacterial activity against Citrobacter amalonaticus Ca38009 transconjugant harboring IncL/M plasmid and blaIMP-4-qacG2-aacA4-catB3 array by Etest method
Klebsiella pneumoniae [23] = assay: Antibacterial activity against Klebsiella pneumoniae isolate Kp149 harboring IncA/C plasmid and blaIMP-4-qacG2-aacA4-catB3 array by Etest method
Enterobacter cloacae [24] = assay: Antibacterial activity against Enterobacter cloacae isolate El3799 harboring IncL/M plasmid and blaIMP-4-qacG2-aacA4-catB3 array by Etest method
Klebsiella pneumoniae [25] = assay: Antibacterial activity against Klebsiella pneumoniae isolate Kp211 harboring IncA/C plasmid and blaIMP-4-qacG2-aacA4-catB3 array by Etest method
Serratia marcescens [26] = assay: Antibacterial activity against Serratia marcescens isolate Sm203 harboring IncA/C plasmid and blaIMP-4-qacG2-aacA4-catB3 array by Etest method
Enterobacter cloacae [27] = assay: Antibacterial activity against Enterobacter cloacae isolate El3280 harboring IncL/M plasmid and blaIMP-4-qacG2-aacA4-catB3 array by Etest method
Morganella morganii [28] = assay: Antibacterial activity against Morganella morganii Mm1229 transconjugant harboring IncL/M plasmid and blaIMP-4-qacG2-aacA4-catB3 array by Etest method
Klebsiella pneumoniae [29] = assay: Antibacterial activity against Klebsiella pneumoniae isolate Kp7564 harboring IncL/M plasmid and blaIMP-4-qacG2-aacA4-catB3 array by Etest method
Citrobacter amalonaticus [30] = assay: Antibacterial activity against Citrobacter amalonaticus isolate Ca38009 harboring IncL/M plasmid and blaIMP-4-qacG2-aacA4-catB3 array by Etest method
Escherichia coli [31] = assay: Antibacterial activity against Escherichia coli Ec9381 transconjugant harboring IncL/M plasmid and blaIMP-4-qacG2-aacA4-catB3 array by Etest method
Enterobacter cloacae [32] = assay: Antibacterial activity against Enterobacter cloacae El3799 transconjugant harboring IncL/M plasmid and blaIMP-4-qacG2-aacA4-catB3 array by Etest method
Escherichia coli [33] = assay: Antibacterial activity against Escherichia coli isolate Ec9381 harboring IncL/M plasmid and blaIMP-4-qacG2-aacA4-catB3 array by Etest method
Klebsiella oxytoca [34] = assay: Antibacterial activity against Klebsiella oxytoca isolate Ko1156 harboring IncL/M plasmid and blaIMP-4-qacG2-aacA4-catB3 array by Etest method
Klebsiella oxytoca [35] = assay: Antibacterial activity against Klebsiella oxytoca isolate Ko0426 harboring IncL/M plasmid and blaIMP-4-qacG2-aacA4-catB3 array by Etest method
Citrobacter youngae = assay: Antibacterial activity against Citrobacter youngae isolate CyB38 harboring blaIMP-4-qacG2-aacA4-catB3 array by Etest method
Serratia marcescens [36] = assay: Antibacterial activity against Serratia marcescens isolate Sm265 harboring IncA/C plasmid and blaIMP-4-qacG2-aacA4-catB3 array by Etest method
Klebsiella oxytoca [37] = assay: Antibacterial activity against Klebsiella oxytoca Ko238 transconjugant harboring IncA/C plasmid and blaIMP-4-qacG2-aacA4-catB3 array by Etest method
Citrobacter amalonaticus [38] = assay: Antibacterial activity against Citrobacter amalonaticus isolate Ca3927 harboring IncL/M plasmid and blaIMP-4-qacG2-aacA4-catB3 array by Etest method
Klebsiella pneumoniae [39] = assay: Antibacterial activity against Klebsiella pneumoniae isolate Kp266 harboring IncA/C plasmid and blaIMP-4-qacG2-aacA4-catB3 array by Etest method
Escherichia coli [40] = assay: Antibacterial activity against Escherichia coli Ec158 transconjugant harboring IncA/C plasmid and blaIMP-4-qacG2-aacA4-catB3 array by Etest method

## NC[C@H]1O[C@H](O[C@H]2[C@H](O)[C@@H](O[C@H]3O[C@H](CO)[C@@H](O)[C@H](N)[C@H]3O)[C@H](N)C[C@@H]2N)[C@H](N)C[C@@H]1O [TOBRAMYCIN]
Citrobacter koseri
  MIC: 8 µg/mL (≈ 17.1 µM)
Serratia marcescens [1]
  MIC: > 8 µg/mL
Escherichia coli [2]
  MIC: 8 µg/mL (≈ 17.1 µM)
Klebsiella pneumoniae [3]
  MIC: 8 µg/mL (≈ 17.1 µM)
Escherichia coli [4]
  MIC: 8 µg/mL (≈ 17.1 µM)
Enterobacter cloacae [5]
  MIC: > 8 µg/mL
Klebsiella pneumoniae [6]
  MIC: 8 µg/mL (≈ 17.1 µM)
Klebsiella pneumoniae [7]
  MIC: 8 µg/mL (≈ 17.1 µM)
Enterobacter cloacae [8]
  MIC: > 8 µg/mL
Enterobacter cloacae [9]
  MIC: > 8 µg/mL
Klebsiella pneumoniae [10]
  MIC: 8 µg/mL (≈ 17.1 µM)
Klebsiella pneumoniae [11]
  MIC: > 8 µg/mL
Serratia marcescens [12]
  MIC: > 8 µg/mL
Serratia marcescens [13]
  MIC: 8 µg/mL (≈ 17.1 µM)
Morganella morganii [14]
  MIC: > 8 µg/mL
Morganella morganii [15]
  MIC: 8 µg/mL (≈ 17.1 µM)
Klebsiella oxytoca [16]
  MIC: 8 µg/mL (≈ 17.1 µM)
Citrobacter amalonaticus [17]
  MIC: > 8 µg/mL
Klebsiella pneumoniae [18]
  MIC: 8 µg/mL (≈ 17.1 µM)
Klebsiella pneumoniae [19]
  MIC: 8 µg/mL (≈ 17.1 µM)
Citrobacter amalonaticus [20]
  MIC: 8 µg/mL (≈ 17.1 µM)
Enterobacter cloacae [21]
  MIC: 8 µg/mL (≈ 17.1 µM)
Citrobacter amalonaticus [22]
  MIC: 8 µg/mL (≈ 17.1 µM)
Klebsiella pneumoniae [23]
  MIC: > 8 µg/mL
Enterobacter cloacae [24]
  MIC: > 8 µg/mL
Klebsiella pneumoniae [25]
  MIC: 8 µg/mL (≈ 17.1 µM)
Serratia marcescens [26]
  MIC: > 8 µg/mL
Enterobacter cloacae [27]
  MIC: > 8 µg/mL
Morganella morganii [28]
  MIC: 8 µg/mL (≈ 17.1 µM)
Klebsiella pneumoniae [29]
  MIC: 8 µg/mL (≈ 17.1 µM)
Citrobacter amalonaticus [30]
  MIC: > 8 µg/mL
Escherichia coli [31]
  MIC: 8 µg/mL (≈ 17.1 µM)
Enterobacter cloacae [32]
  MIC: 8 µg/mL (≈ 17.1 µM)
Escherichia coli [33]
  MIC: > 8 µg/mL
Klebsiella oxytoca [34]
  MIC: > 8 µg/mL
Klebsiella oxytoca [35]
  MIC: > 8 µg/mL
Citrobacter youngae
  MIC: > 8 µg/mL
Serratia marcescens [36]
  MIC: > 8 µg/mL
Klebsiella oxytoca [37]
  MIC: 8 µg/mL (≈ 17.1 µM)
Citrobacter amalonaticus [38]
  MIC: > 8 µg/mL
Klebsiella pneumoniae [39]
  MIC: > 8 µg/mL
Escherichia coli [40]
  MIC: 8 µg/mL (≈ 17.1 µM)

## GENTAMICIN
Citrobacter koseri
  MIC: > 8 µg/mL
Serratia marcescens [1]
  MIC: > 8 µg/mL
Escherichia coli [2]
  MIC: < 2 µg/mL
Klebsiella pneumoniae [3]
  MIC: > 8 µg/mL
Escherichia coli [4]
  MIC: > 8 µg/mL
Enterobacter cloacae [5]
  MIC: > 8 µg/mL
Klebsiella pneumoniae [6]
  MIC: < 2 µg/mL
Klebsiella pneumoniae [7]
  MIC: > 8 µg/mL
Enterobacter cloacae [8]
  MIC: > 8 µg/mL
Enterobacter cloacae [9]
  MIC: > 8 µg/mL
Klebsiella pneumoniae [10]
  MIC: > 8 µg/mL
Klebsiella pneumoniae [11]
  MIC: > 8 µg/mL
Serratia marcescens [12]
  MIC: > 8 µg/mL
Serratia marcescens [13]
  MIC: > 8 µg/mL
Morganella morganii [14]
  MIC: > 8 µg/mL
Morganella morganii [15]
  MIC: > 8 µg/mL
Klebsiella oxytoca [16]
  MIC: > 8 µg/mL
Citrobacter amalonaticus [17]
  MIC: > 8 µg/mL
Klebsiella pneumoniae [18]
  MIC: > 8 µg/mL
Klebsiella pneumoniae [19]
  MIC: > 8 µg/mL
Citrobacter amalonaticus [20]
  MIC: > 8 µg/mL
Enterobacter cloacae [21]
  MIC: > 8 µg/mL
Citrobacter amalonaticus [22]
  MIC: > 8 µg/mL
Klebsiella pneumoniae [23]
  MIC: > 8 µg/mL
Enterobacter cloacae [24]
  MIC: > 8 µg/mL
Klebsiella pneumoniae [25]
  MIC: > 8 µg/mL
Serratia marcescens [26]
  MIC: > 8 µg/mL
Enterobacter cloacae [27]
  MIC: > 8 µg/mL
Morganella morganii [28]
  MIC: > 8 µg/mL
Klebsiella pneumoniae [29]
  MIC: > 8 µg/mL
Citrobacter amalonaticus [30]
  MIC: > 8 µg/mL
Escherichia coli [31]
  MIC: > 8 µg/mL
Enterobacter cloacae [32]
  MIC: > 8 µg/mL
Escherichia coli [33]
  MIC: > 8 µg/mL
Klebsiella oxytoca [34]
  MIC: > 8 µg/mL
Klebsiella oxytoca [35]
  MIC: > 8 µg/mL
Citrobacter youngae
  MIC: > 8 µg/mL
Serratia marcescens [36]
  MIC: 8 µg/mL
Klebsiella oxytoca [37]
  MIC: < 2 µg/mL
Citrobacter amalonaticus [38]
  MIC: > 8 µg/mL
Klebsiella pneumoniae [39]
  MIC: > 8 µg/mL
Escherichia coli [40]
  MIC: > 8 µg/mL
